In US5210193A, “Piperazine derivatives” (American Cyanamid Company, priority 1990, dated 1993):
In brackets after ≈: the same amount, converted by molar mass. Like-named read-outs stand apart in the source and are kept apart here.

Tests used:
Assay in all cases: in vitro antibacterial MIC, agar plate dilution
Type in all cases: cell-based
[1] = test system: Escherichia coli ATCC 25922; settings: 35° C.
In short: (§1)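 MIC, mcg/ml: lowest concentration with no visible growth after 18 h incubation at 35° C. Mueller-Hinton agar dilution plates; ~10^4 CFU inoculum via Steers replicating device.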

[2] = test system: Escherichia coli CMC 84-11; settings: 35° C.
In short: as §1

Escherichia coli LL 311 = settings: Escherichia coli, LL311, 18 h, 35° C., read-out: MIC
In short: as §1

[3] = test system: Morganella morganii CMC 84-37; settings: Morganella morganii, CMC8437, 18 h, 35° C., read-out: MIC
In short: as §1

[4] = test system: Proteus rettgeri CMC 84-41; settings: Providencia rettgeri, CMC8441, 18 h, 35° C., read-out: MIC
In short: as §1

[5] = test system: Pseudomonas aeruginosa LL-1244; settings: Pseudomonas aeruginosa, LL1244, 18 h, 35° C., read-out: MIC
In short: as §1

[6] = test system: Pseudomonas aeruginosa VGH 84-4; settings: Pseudomonas aeruginosa, VGH844, 18 h, 35° C., read-out: MIC
In short: as §1

[7] = test system: Serratia marcescens K 84-18; settings: Serratia marcescens, K8418, 18 h, 35° C., read-out: MIC
In short: as §1

[8] = test system: Serratia marcescens VGH 84-30; settings: Serratia marcescens, VGH8430, 18 h, 35° C., read-out: MIC
In short: as §1

[9] = test system: Staphylococcus aureus ATTC 29213; settings: Staphylococcus aureus, ATTC29213, 18 h, 35° C., read-out: MIC
In short: as §1

[10] = test system: Staphylococcus aureus Smith; settings: 35° C.
In short: as §1

[11] = test system: Staphylococcus aureus VGH 84-45; settings: Staphylococcus aureus, VGH8445, 18 h, 35° C., read-out: MIC
In short: as §1

[12] = test system: Streptococcus faecalis UCI 85-19; settings: Enterococcus faecalis, UCI8519, 18 h, 35° C., read-out: MIC
In short: as §1

[13] = test system: Streptococcus faecalis VGH 84-65; settings: Enterococcus faecalis, VGH8465, 18 h, 35° C., read-out: MIC
In short: as §1

[14] = Escherichia coli, ATCC25922, 18 h, read-out: MIC
[15] = Escherichia coli, CMC8411, 18 h, read-out: MIC
[16] = Staphylococcus aureus, 18 h, read-out: MIC

| SMILES | MIC [1, 14] [mg/L] | MIC [2, 15] [mg/L] | MIC (Escherichia coli LL 311) [mg/L] | MIC [3] [mg/L] | MIC [4] [mg/L] | MIC [5] [mg/L] | MIC [6] [mg/L] | MIC [7] [mg/L] | MIC [8] [mg/L] | MIC [9] [mg/L] | MIC [10, 16] [mg/L] | MIC [11] [mg/L] | MIC [12] [mg/L] | MIC [13] [mg/L] | MIC ([1]; 18 hours) [mg/L] | MIC ([2]; 18 hours) [mg/L] | MIC ([10]; 18 hours) [mg/L] |
| --- | --- | --- | --- | --- | --- | --- | --- | --- | --- | --- | --- | --- | --- | --- | --- | --- | --- |
| O=C(O)c1cn(C2CC2)c2cc(N3CCNC(COc4ccccc4)C3)c(F)cc2c1=O (centres unmarked) [Example 83, 1-Cyclopropyl-6-fluoro-1,4-dihydro-4-oxo-7-[3-(phenoxymethyl)-1-piperazinyl]-3-quinolinecarboxylic acid] | 0.12 (≈ 0.274 µM) | 0.06 (≈ 0.137 µM) | 0.12 (≈ 0.274 µM) | 0.12 (≈ 0.274 µM) | 0.25 (≈ 0.571 µM) | 32 (≈ 73.1 µM) | 4 (≈ 9.14 µM) | 0.5 (≈ 1.14 µM) | 4 (≈ 9.14 µM) | 0.25 (≈ 0.571 µM) | 0.06 (≈ 0.137 µM) | 0.03 (≈ 0.0686 µM) | 2 (≈ 4.57 µM) | 2 (≈ 4.57 µM) |  |  |  |
| CCn1cc(C(=O)O)c(=O)c2c(F)c(F)c(N3CCNC(c4ccsc4)C3)c(F)c21 (centres unmarked) [Example 90, 1-Ethyl-5,6,8-trifluoro-1,4-dihydro-4-oxo-7-[3-(3-thienyl)-1-piperazinyl]-3-quinolinecarboxylic acid] | 0.25 (≈ 0.572 µM) | 0.25 (≈ 0.572 µM) | 0.25 (≈ 0.572 µM) | 0.25 (≈ 0.572 µM) | 1 (≈ 2.29 µM) | 32 (≈ 73.2 µM) | 16 (≈ 36.6 µM) | 1 (≈ 2.29 µM) | 16 (≈ 36.6 µM) | 1 (≈ 2.29 µM) | 0.25 (≈ 0.572 µM) | 0.25 (≈ 0.572 µM) | 8 (≈ 18.3 µM) | 8 (≈ 18.3 µM) |  |  |  |
| CCn1cc(C(=O)O)c(=O)c2cc(F)c(N3CCNC(C(C)(F)F)C3)c(F)c21 (centres unmarked) [Example 117] | 0.06 (≈ 0.149 µM) | 0.12 (≈ 0.299 µM) | 0.12 (≈ 0.299 µM) | 0.25 (≈ 0.623 µM) | 0.5 (≈ 1.25 µM) | 8 (≈ 19.9 µM) | 4 (≈ 9.97 µM) | 0.25 (≈ 0.623 µM) | 8 (≈ 19.9 µM) | 2 (≈ 4.98 µM) | 0.5 (≈ 1.25 µM) | 0.5 (≈ 1.25 µM) | 8 (≈ 19.9 µM) | 8 (≈ 19.9 µM) |  |  |  |
| COCC1CN(c2cc3c(cc2F)c(=O)c(C(=O)O)cn3C2CC2)CCN1 (centres unmarked) [Example 81, 1-Cyclopropyl-6-fluoro-1,4-dihydro-7-[3-(methoxymethyl)-1-pioerazinyl]-4-oxo-3-quinolinecarboxylic acid] | 0.25 (≈ 0.666 µM) | 0.03 (≈ 0.0799 µM) | 0.03 (≈ 0.0799 µM) | 0.06 (≈ 0.16 µM) | 0.12 (≈ 0.32 µM) | 8 (≈ 21.3 µM) | 2 (≈ 5.33 µM) | 0.5 (≈ 1.33 µM) | 4 (≈ 10.7 µM) | 0.25 (≈ 0.666 µM) | 0.12 (≈ 0.32 µM) | 0.12 (≈ 0.32 µM) | 2 (≈ 5.33 µM) | 2 (≈ 5.33 µM) |  |  |  |
| COCC1CN(c2cc3c(cc2F)c(=O)c(C(=O)O)cn3-c2ccc(F)cc2)CCN1 (centres unmarked) [Example 82, 6-Fluoro-1-(4-fluorophenyl)-1,4-dihydro-7-(3-(methoxy-methyl)-1-piperazinyl]-4-oxo-3-cuinolinecarboxylic acid] | 0.25 (≈ 0.582 µM) | 0.12 (≈ 0.279 µM) | 0.25 (≈ 0.582 µM) | 1 (≈ 2.33 µM) | 1 (≈ 2.33 µM) | 32 (≈ 74.5 µM) | 8 (≈ 18.6 µM) | 2 (≈ 4.66 µM) | 16 (≈ 37.3 µM) | 0.5 (≈ 1.16 µM) | 0.12 (≈ 0.279 µM) | 0.12 (≈ 0.279 µM) | 8 (≈ 18.6 µM) | 8 (≈ 18.6 µM) |  |  |  |
| O=C(O)c1cn(-c2ccc(F)cc2)c2cc(N3CCNC(COc4ccccc4)C3)c(F)cc2c1=O (centres unmarked) [Example 84, 1-(4-Fluorophenvl)-6-fluoro-1,4-dihydro-4-oxo-7-[3-(phenoxymethyl)-1-piperazinyl]-3-quinolinecarboxylic acid] | 1 (≈ 2.03 µM) | 1 (≈ 2.03 µM) | 1 (≈ 2.03 µM) | 2 (≈ 4.07 µM) | 1 (≈ 2.03 µM) | > 128 | 32 (≈ 65.1 µM) | 32 (≈ 65.1 µM) | > 128 | 1 (≈ 2.03 µM) | 0.25 (≈ 0.509 µM) | 0.25 (≈ 0.509 µM) | 32 (≈ 65.1 µM) | 32 (≈ 65.1 µM) |  |  |  |
| CCn1cc(C(=O)O)c(=O)c2cc(F)c(N3CCN(C)C(CF)C3)c(F)c21 (single isomer, unassigned) [Example 114, (-1-1-Ethyl-6,8-difluoro-7-[3-fluoromethyl)-4-methyl-1-piperazinyl]-1,4-dihydro-4-oxo-3-quinolinecarboxylic acid] |  |  | 0.25 (≈ 0.652 µM) | 1 (≈ 2.61 µM) | 2 (≈ 5.22 µM) | 16 (≈ 41.7 µM) | 8 (≈ 20.9 µM) | 1 (≈ 2.61 µM) | 16 (≈ 41.7 µM) | 8 (≈ 20.9 µM) |  | 0.25 (≈ 0.652 µM) | 4 (≈ 10.4 µM) | 4 (≈ 10.4 µM) | 0.12 (≈ 0.313 µM) | 0.12 (≈ 0.313 µM) | 0.12 (≈ 0.313 µM) |
| CCn1cc(C(=O)O)c(=O)c2cc(F)c(N3CCN(C)C(CF)C3)c(F)c21 (racemic) [Example 113, Racemic 1-Ethyl-6,8-difluoro-7-[3-(fluoromethyl)-4-methyl-1-piperazinyl]-1,4-dihydro-4-oxo-3-quinolinecarboxylic acid] | 0.25 (≈ 0.652 µM) | 0.25 (≈ 0.652 µM) | 0.5 (≈ 1.3 µM) | 1 (≈ 2.61 µM) | 2 (≈ 5.22 µM) | 32 (≈ 83.5 µM) | 8 (≈ 20.9 µM) | 2 (≈ 5.22 µM) | 16 (≈ 41.7 µM) | 8 (≈ 20.9 µM) | 0.25 (≈ 0.652 µM) | 0.25 (≈ 0.652 µM) | 8 (≈ 20.9 µM) | 8 (≈ 20.9 µM) |  |  |  |
| CCn1cc(C(=O)O)c(=O)c2c(F)c(F)c(N3CCNC(C)C3)c(F)c21 (centres unmarked) [Example 91, 1-Ethyl-5,6,8-trifluoro-1,4-dihydro-7-(3-methyl-1-piperazinyl)-4-oxo-3-quinolinecarboxylic acid] | 0.5 (≈ 1.35 µM) | 0.25 (≈ 0.677 µM) | 0.25 (≈ 0.677 µM) | 0.12 (≈ 0.325 µM) | 0.25 (≈ 0.677 µM) | 8 (≈ 21.7 µM) | 8 (≈ 21.7 µM) | 0.5 (≈ 1.35 µM) | 16 (≈ 43.3 µM) | 4 (≈ 10.8 µM) | 2 (≈ 5.42 µM) | 2 (≈ 5.42 µM) | 32 (≈ 86.6 µM) | 32 (≈ 86.6 µM) |  |  |  |
| CCn1cc(C(=O)O)c(=O)c2cc(F)c(N3CCNC(c4ccccn4)C3)c(F)c21 (centres unmarked) [Example 116] | 0.06 (≈ 0.145 µM) | 0.06 (≈ 0.145 µM) | 0.12 (≈ 0.29 µM) | 0.25 (≈ 0.603 µM) | 0.5 (≈ 1.21 µM) | 8 (≈ 19.3 µM) | 4 (≈ 9.65 µM) | 0.5 (≈ 1.21 µM) | 8 (≈ 19.3 µM) | 2 (≈ 4.83 µM) | 0.12 (≈ 0.29 µM) | 0.12 (≈ 0.29 µM) | 2 (≈ 4.83 µM) | 2 (≈ 4.83 µM) |  |  |  |
